US12214036B2, “Combination therapy comprising AXL/MER and PD-1/PD-L1 inhibitors” (Incyte Corporation, priority 2020, dated 2025)

Test system: CTG-1339 tumors
Assay: Sarcoma PDX model CTG-1339 (osteosarcoma)
Type: in vivo, athymic nude mice
Procedure: Macrophages were allowed to thaw on ice before being lysed with 250 μL/well of 1× Lysis Buffer (Cell Signaling Technology; #9803) and Halt protease and phosphatase inhibitors (ThermoFisher Scientific) for 1 hour at 4° C. The lysed cells were scraped and transferred to an Eppendorf vial on ice. The lysates were centrifuged at 12,700 rpm for 15 minutes at 4° C. PDX tumors were weighed and homogenized with lysis buffer supplemented with protease and phosphatase inhibitor cocktails (Roche, Basel, Switzerland; #11836170001). Tumors were lysed on ice for 30 minutes, followed by centrifugation at 13,000 rpm for 10 minutes. Protein lysates were quantified using BCA Protein Assay Kit (Pierce, ThermoFisher Scientific; #23225). Lysates were transferred to a new tube together with 6× Laemmli SDS sample buffer (Alfa Aesar, Haverhill, Mass.) and the samples were heated for 6 minutes at 95° C. Approximately 50 μg of protein sample was loaded per well using Novex™ 8-16% Tris-Glycine Mini Gels or 4-12% Tris-Glycine Novex WedgeGels (Invitrogen, Carlsbad, Calif.). The proteins were transferred to a nitrocellulose membrane using an iBlot (ThermoFisher Scientific) dry blotting system. The membranes were blocked with 0.5% nonfat dry milk in wash buffer (100 mM NaCl, 10 mM Tris-HCl, pH 8.0, 0.1% Tween 20) for 1 hour at room temperature. The primary antibody used for pMER was from PhosphoSolutions (Aurora, Colo.; #p186-749). The remaining antibodies were obtained from Cell Signaling Technology: MER (#4319), pAXL (#5724), AXL, (#4566), GAS6 (#67202), pAKT (#4060), AKT (#9272), and β-Actin (#4970). Primary antibodies were added at 1:500 and 1:1000, respectively, in 0.5% milk/wash buffer and rocked overnight at 4° C. The membranes were washed three times in wash buffer before incubation with the secondary antibody (anti-rabbit IgG1-HRP; Cell Signaling Technology) at 1:2500 in 0.5% milk/wash buffer for 2 hours at room temperature. The membranes were washed again before the bands were detected with SuperSignal West Dura Extended Duration Chemiluminescent substrate (ThermoFisher Scientific) and were visualized using the Fluorochem M Digital Imager (Protein Simple, San Jose, Calif.).
MBT-2 cells were obtained from the Japanese Collection of Research Bioresources Cell Bank and were maintained in DMEM supplemented with 10% FBS. MC38 cells were obtained from the NCI. 4T1 cells were obtained from ATCC and maintained in RPMI media supplemented with 10% FBS. For MBT-2 experiments, 5×10^5 MBT-2 cells were inoculated subcutaneously into the right hind flank of 6- to 8-week-old C3H mice or athymic nude mice (Charles River Laboratories, Wilmington, Mass.). […] Mice were monitored for tumor growth and overt tolerability over the course of the experiment. […]

CC(C)C(=O)N1CCC(c2cc(-c3ccc(NC(=O)c4cn(C(C)C)c(=O)n(-c5ccccn5)c4=O)cc3)c3c(N)ncnn23)CC1 [Compound 1, N-(4-(4-Amino-7-(1-isobutyrylpiperidin-4-yl)pyrrolo[1,2-f][1,2,4]triazin-5-yl)phenyl)-1-isopropyl-2,4-dioxo-3-(pyridin-2-yl)-1,2,3,4-tetrahydropyrimidine-5-carboxamide] was tested. Which antitumor response (CTG-1339, 10, 30, 100 mg/kg BID oral, FIG. 9C) did it give?
Its antitumor response is “resistant”.

What about the “pAKT in tumors (Western blot)” value (CTG-1339 tumors, FIG. 9D) of the same compound?
The value was “only inhibited in CTG-2041”.

What about the “pAXL and pMER in tumors (Western blot)” value (CTG-1339 tumors, FIG. 9D) of the same compound?
Its value is “inhibited”.

What about the “total MER levels in tumors (Western blot)” value (CTG-1339 tumors, FIG. 9D) of the same compound?
Its value is “increased”.
